According to the supplement of paper PMC10307832:

Columns and labels:
Assay in all cases: relative viability (nuclei count vs DMSO), 5 days (fraction); higher = more cells survive
[1] = compound: CC(C)N(CCCNC(=O)Nc1ccc(C(C)(C)C)cc1)C[C@H]1O[C@@H](n2ccc3c(N)ncnc32)[C@H](O)[C@@H]1O + CC1(C)CCC(c2ccc(Cl)cc2)=C(CN2CCN(c3ccc(C(=O)NS(=O)(=O)c4ccc(N[C@H](CCN5CCOCC5)CSc5ccccc5)c(S(=O)(=O)C(F)(F)F)c4)cc3)CC2)C1 [Navitoclax] (partner 0.5 µM)
Outline: (§1)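 Relative viability is defined as nuclei in treated wells over nuclei in vehicle wells. Duplicate plates were run and medians reported. Lung cancer cell lines in 1536-well plates were dosed by pin tool one day after seeding, with one drug or with a fixed anchor-drug dose plus five library-drug doses (not always all listed) in √10 steps, and nuclei were counted after 5 days.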

[2] = compound: CC(C)N(CCCNC(=O)Nc1ccc(C(C)(C)C)cc1)C[C@H]1O[C@@H](n2ccc3c(N)ncnc32)[C@H](O)[C@@H]1O + CC(=O)Nc1cccc(-n2c(=O)n(C3CC3)c(=O)c3c(Nc4ccc(I)cc4F)n(C)c(=O)c(C)c32)c1 [Trametinib] (partner 0.02 µM)
Outline: as §1

Shikonin + Foretinib = compound: CC(C)=CC[C@@H](O)C1=CC(=O)c2c(O)ccc(O)c2C1=O [Shikonin] + COc1cc2c(Oc3ccc(NC(=O)C4(C(=O)Nc5ccc(F)cc5)CC4)cc3F)ccnc2cc1OCCCN1CCOCC1 [Foretinib] (partner 0.25 µM)
Outline: as §1

Shikonin + Vorinostat = compound: CC(C)=CC[C@@H](O)C1=CC(=O)c2c(O)ccc(O)c2C1=O [Shikonin] + O=C(CCCCCCC(=O)Nc1ccccc1)NO [Vorinostat] (partner 1 µM)
Outline: as §1

201T
relative viability ([1]; first compound 0.08 µM): 1.21 | relative viability ([1]; first compound 0.253 µM): 1.21 | relative viability ([1]; first compound 0.8 µM): 1.24 | relative viability ([1]; first compound 2.53 µM): 1.21 | relative viability ([1]; first compound 8 µM): 1.25 | relative viability ([2]; first compound 0.08 µM): 0.719 | relative viability ([2]; first compound 0.253 µM): 0.692 | relative viability ([2]; first compound 2.53 µM): 0.733 | relative viability ([2]; first compound 8 µM): 0.695 | relative viability (Shikonin + Foretinib; first compound 0.01 µM): 1.07 | relative viability (Shikonin + Foretinib; first compound 0.1 µM): 1.15 | relative viability (Shikonin + Foretinib; first compound 0.3162 µM): 1.19 | relative viability (Shikonin + Foretinib; first compound 1 µM): 1.25 | relative viability (Shikonin + Vorinostat; first compound 0.01 µM): 1.02 | relative viability (Shikonin + Vorinostat; first compound 0.1 µM): 1.03 | relative viability (Shikonin + Vorinostat; first compound 0.3162 µM): 1.02 | relative viability (Shikonin + Vorinostat; first compound 1 µM): 1

A549
relative viability ([1]; first compound 0.08 µM): 1.17 | relative viability ([1]; first compound 0.253 µM): 1.22 | relative viability ([1]; first compound 0.8 µM): 1.25 | relative viability ([1]; first compound 2.53 µM): 1.18 | relative viability ([1]; first compound 8 µM): 1.14 | relative viability (Shikonin + Foretinib; first compound 0.01 µM): 1.05 | relative viability (Shikonin + Foretinib; first compound 0.1 µM): 1.03 | relative viability (Shikonin + Foretinib; first compound 0.3162 µM): 1.16 | relative viability (Shikonin + Foretinib; first compound 1 µM): 1.11

A-427
relative viability ([1]; first compound 0.08 µM): 0.917 | relative viability ([1]; first compound 0.253 µM): 0.941 | relative viability ([1]; first compound 0.8 µM): 0.875 | relative viability ([1]; first compound 2.53 µM): 0.969 | relative viability ([1]; first compound 8 µM): 0.925 | relative viability ([2]; first compound 0.08 µM): 0.751 | relative viability ([2]; first compound 0.253 µM): 0.816 | relative viability ([2]; first compound 0.8 µM): 0.677 | relative viability ([2]; first compound 2.53 µM): 0.806 | relative viability ([2]; first compound 8 µM): 0.743 | relative viability (Shikonin + Foretinib; first compound 0.01 µM): 1.16 | relative viability (Shikonin + Foretinib; first compound 0.1 µM): 1.26 | relative viability (Shikonin + Foretinib; first compound 0.3162 µM): 1.21 | relative viability (Shikonin + Foretinib; first compound 1 µM): 1.16 | relative viability (Shikonin + Vorinostat; first compound 0.01 µM): 0.862 | relative viability (Shikonin + Vorinostat; first compound 0.1 µM): 0.938 | relative viability (Shikonin + Vorinostat; first compound 0.3162 µM): 0.93 | relative viability (Shikonin + Vorinostat; first compound 1 µM): 0.931

ABC-1
relative viability (Shikonin + Foretinib; first compound 0.01 µM): 1.14 | relative viability (Shikonin + Foretinib; first compound 0.1 µM): 0.993 | relative viability (Shikonin + Foretinib; first compound 0.3162 µM): 0.927 | relative viability (Shikonin + Foretinib; first compound 1 µM): 1.04 | relative viability (Shikonin + Vorinostat; first compound 0.01 µM): 1.2 | relative viability (Shikonin + Vorinostat; first compound 0.1 µM): 1.15 | relative viability (Shikonin + Vorinostat; first compound 0.3162 µM): 1.08 | relative viability (Shikonin + Vorinostat; first compound 1 µM): 0.837

BEN
relative viability ([1]; first compound 0.08 µM): 0.0864 | relative viability ([1]; first compound 0.253 µM): 0.0543 | relative viability ([1]; first compound 0.8 µM): 0.0608 | relative viability ([1]; first compound 2.53 µM): 0.0499 | relative viability ([1]; first compound 8 µM): 0.0778 | relative viability ([2]; first compound 0.08 µM): 1.01 | relative viability ([2]; first compound 0.253 µM): 0.92 | relative viability ([2]; first compound 0.8 µM): 0.96 | relative viability ([2]; first compound 2.53 µM): 1.26 | relative viability ([2]; first compound 8 µM): 1.08 | relative viability (Shikonin + Foretinib; first compound 0.01 µM): 0.576 | relative viability (Shikonin + Foretinib; first compound 0.1 µM): 0.744 | relative viability (Shikonin + Foretinib; first compound 0.3162 µM): 0.839 | relative viability (Shikonin + Foretinib; first compound 1 µM): 0.848 | relative viability (Shikonin + Vorinostat; first compound 0.01 µM): 0.567 | relative viability (Shikonin + Vorinostat; first compound 0.1 µM): 0.619 | relative viability (Shikonin + Vorinostat; first compound 0.3162 µM): 0.606 | relative viability (Shikonin + Vorinostat; first compound 1 µM): 0.617

CAL-12T
relative viability ([1]; first compound 0.08 µM): 1.14 | relative viability ([1]; first compound 0.253 µM): 1.27 | relative viability ([1]; first compound 0.8 µM): 1.19 | relative viability ([1]; first compound 2.53 µM): 1.19 | relative viability ([1]; first compound 8 µM): 1.19 | relative viability ([2]; first compound 0.08 µM): 0.346 | relative viability ([2]; first compound 0.253 µM): 0.345 | relative viability ([2]; first compound 0.8 µM): 0.362 | relative viability ([2]; first compound 2.53 µM): 0.323 | relative viability ([2]; first compound 8 µM): 0.306 | relative viability (Shikonin + Foretinib; first compound 0.01 µM): 1.02 | relative viability (Shikonin + Foretinib; first compound 0.1 µM): 1.08 | relative viability (Shikonin + Foretinib; first compound 0.3162 µM): 1.23 | relative viability (Shikonin + Foretinib; first compound 1 µM): 1.16 | relative viability (Shikonin + Vorinostat; first compound 0.01 µM): 0.842 | relative viability (Shikonin + Vorinostat; first compound 0.1 µM): 0.802 | relative viability (Shikonin + Vorinostat; first compound 0.3162 µM): 0.832 | relative viability (Shikonin + Vorinostat; first compound 1 µM): 0.583

COR-L23
relative viability ([1]; first compound 0.08 µM): 0.977 | relative viability ([1]; first compound 0.253 µM): 0.919 | relative viability ([1]; first compound 0.8 µM): 0.982 | relative viability ([1]; first compound 2.53 µM): 1.01 | relative viability ([1]; first compound 8 µM): 0.963 | relative viability ([2]; first compound 0.08 µM): 0.664 | relative viability ([2]; first compound 0.253 µM): 0.374 | relative viability ([2]; first compound 0.8 µM): 0.631 | relative viability ([2]; first compound 2.53 µM): 0.67 | relative viability ([2]; first compound 8 µM): 0.519 | relative viability (Shikonin + Foretinib; first compound 0.01 µM): 1.05 | relative viability (Shikonin + Foretinib; first compound 0.1 µM): 0.813 | relative viability (Shikonin + Foretinib; first compound 0.3162 µM): 1.03 | relative viability (Shikonin + Foretinib; first compound 1 µM): 0.988 | relative viability (Shikonin + Vorinostat; first compound 0.01 µM): 0.413 | relative viability (Shikonin + Vorinostat; first compound 0.1 µM): 0.449 | relative viability (Shikonin + Vorinostat; first compound 0.3162 µM): 0.471 | relative viability (Shikonin + Vorinostat; first compound 1 µM): 0.308

COR-L 105
relative viability ([1]; first compound 0.08 µM): 0.745 | relative viability ([1]; first compound 0.253 µM): 0.776 | relative viability ([1]; first compound 0.8 µM): 0.886 | relative viability ([1]; first compound 2.53 µM): 0.931 | relative viability ([1]; first compound 8 µM): 0.645 | relative viability ([2]; first compound 0.08 µM): 0.492 | relative viability ([2]; first compound 0.253 µM): 0.402 | relative viability ([2]; first compound 0.8 µM): 0.496 | relative viability ([2]; first compound 2.53 µM): 0.465 | relative viability ([2]; first compound 8 µM): 0.537 | relative viability (Shikonin + Foretinib; first compound 0.01 µM): 1.44 | relative viability (Shikonin + Foretinib; first compound 0.1 µM): 1.31 | relative viability (Shikonin + Foretinib; first compound 0.3162 µM): 1.34 | relative viability (Shikonin + Foretinib; first compound 1 µM): 1.33 | relative viability (Shikonin + Vorinostat; first compound 0.01 µM): 0.841 | relative viability (Shikonin + Vorinostat; first compound 0.1 µM): 0.91 | relative viability (Shikonin + Vorinostat; first compound 0.3162 µM): 0.881 | relative viability (Shikonin + Vorinostat; first compound 1 µM): 0.853

Calu-6
relative viability ([1]; first compound 0.08 µM): 0.887 | relative viability ([1]; first compound 0.253 µM): 0.87 | relative viability ([1]; first compound 0.8 µM): 0.848 | relative viability ([1]; first compound 2.53 µM): 0.902 | relative viability ([1]; first compound 8 µM): 0.841 | relative viability (Shikonin + Foretinib; first compound 0.01 µM): 0.962 | relative viability (Shikonin + Foretinib; first compound 0.1 µM): 0.904 | relative viability (Shikonin + Foretinib; first compound 0.3162 µM): 1.02 | relative viability (Shikonin + Foretinib; first compound 1 µM): 0.885

ChaGo-K-1
relative viability ([1]; first compound 0.08 µM): 1.01 | relative viability ([1]; first compound 0.253 µM): 1.02 | relative viability ([1]; first compound 0.8 µM): 0.92 | relative viability ([1]; first compound 2.53 µM): 1.01 | relative viability ([1]; first compound 8 µM): 1.05 | relative viability ([2]; first compound 0.08 µM): 0.91 | relative viability ([2]; first compound 0.253 µM): 0.875 | relative viability ([2]; first compound 0.8 µM): 0.876 | relative viability ([2]; first compound 2.53 µM): 0.876 | relative viability ([2]; first compound 8 µM): 0.843 | relative viability (Shikonin + Foretinib; first compound 0.01 µM): 0.97 | relative viability (Shikonin + Foretinib; first compound 0.1 µM): 1.06 | relative viability (Shikonin + Foretinib; first compound 0.3162 µM): 1.05 | relative viability (Shikonin + Foretinib; first compound 1 µM): 0.943 | relative viability (Shikonin + Vorinostat; first compound 0.01 µM): 0.746 | relative viability (Shikonin + Vorinostat; first compound 0.1 µM): 0.914 | relative viability (Shikonin + Vorinostat; first compound 0.3162 µM): 0.8 | relative viability (Shikonin + Vorinostat; first compound 1 µM): 0.762
